The source of these data is a melting point compilation (Tetko et al.; mined from patent text by program, amines drawn as free bases though some values may be those of a salt).

SMILES strings stand for the structures.

By melting point is commonly meant the temperature of the solid-liquid transition. `CCCCCCCCCCCCCCCCCCSC(=O)Nc1ccccc1` had a melting point of 85.5 to 86.5 °C.

In turn, `OC(COc1ccc(Cl)cc1Cl)(COc1ccc(Cl)cc1Cl)Cn1cncn1` showed a melting point of 136 °C.

`CCOC(=O)c1cn(C2CC2)c2c(C)c(N3CCN(C(=O)OCC)CC3)c(F)cc2c1=O` returned a melting point of 200 to 202 °C.

As for `O=C(c1ccc(CBr)cc1)c1ccc(CBr)cc1`, the melting point was in the range of 118 to 119 °C.

`COc1cc(N)c(Cl)cc1C(=O)NCC1CCN(CCCCCC(=O)c2ccc(O)cc2O)CC1` displayed a melting point of 96 to 99 °C.

`C=C(C)CSc1nc2c(cc1C#N)C(=O)CCC2`: the melting point lay in the range of 85 to 86 °C.

On to `CSCCn1nc(-c2ccc(OCCCC(F)(F)F)cc2)oc1=O`, for which the melting point was 105 °C.

Take `CC(C)(C)c1cc(CN)n(NCC(F)(F)F)n1`: the melting point lay in the range of 80 to 83 °C.

The molecule `CCCOc1ccc(-c2cncn2-c2ccc(S(C)(=O)=O)cc2)cc1` gave a melting point of 167 to 169 °C.

The molecule `Cc1ccnn(-c2cccc(Cl)c2)c1=O` showed a melting point of 244 to 245 °C.

In turn, `CN1C(CO)=Cc2cc(S(N)(=O)=O)sc2S1(=O)=O` returned a melting point of 144 to 146 °C.

Molecule `CC(C)Nc1cccnc1N1CCN(C(=O)c2ccc(C(=O)N3CCOCC3)cc2)CC1` gave a melting point of 139 °C.

The molecule `C=CCOC(=O)c1c(C)nc2c(cnn2CCC(C)CC)c1N` (stereo unspecified) had a melting point of 85 to 86 °C.

Molecule `O=C1Cc2ccccc2N1Nc1ccncc1F` displayed a melting point of 181 to 183 °C.

Molecule `CCOC(=O)c1n[nH]c(CC)c1Sc1cc(Cl)cc(Cl)c1` displayed a melting point of 138 to 139 °C.

The molecule `CCOC(=O)c1ccc(CC(=O)NC(CC(C)C)c2ccccc2N2CCCCC2)cc1OCC` (stereo unspecified) came in with a melting point of 111 to 112 °C.

Take `Sc1nccn1-c1nccs1`: the melting point fell in the range of 211 to 213 °C.

`CCCCC/C(=C\c1ccccc1)CNc1cccc(-c2ccnc3c(C(=O)c4cccs4)cnn23)c1` had a melting point of 110 to 112 °C.

`O=C(c1ccc(Cl)cc1)c1ccc(CSC(F)F)cc1` displayed a melting point of 34 to 35 °C.

Consider `CCC1CCCCN1C(=O)C=Cc1c(-c2cccc(NC)c2)nn2ccccc12` (stereo unspecified), for which the melting point was in the range of 135 to 141 °C.

In turn, `COc1ccc(-n2nc(C(C)CCO)cc2-c2ccc(Cl)cc2)cc1` (stereo unspecified) yielded a melting point of 97.5 to 98.5 °C.

With `O=C(c1ccc2c(c1)C(=O)N1CCC[C@H]1CO2)N1CCOCC1`, the melting point was in the range of 158 to 161 °C.

On to `COc1cc(CN[C@@H](CC(C)C)C(=O)N2CCN(C(c3ccc(F)cc3)c3ccc(F)cc3)CC2)cc(OC)c1OC`, for which the melting point lay in the range of 58 to 62 °C.

Molecule `COc1ccc(Sc2nc(C)c(CC(=O)O)s2)nn1` displayed a melting point of 143 to 144 °C.

`CCCC(=O)NN(C(=O)C(=O)NN)C(=O)c1ccccc1` showed a melting point of 254 °C.

Molecule `CCCCNS(=O)(=O)c1cccc(NC(=O)NS(=O)(=O)c2ccc(C)cc2)c1` yielded a melting point of 153 °C.

On to `CC(C)OC(=O)c1cc(Cl)c(Cl)c(-c2ccc(Cl)cc2)n1`, for which the melting point lay within 133 to 135 °C.

Molecule `Oc1c(-c2ccccc2)sc2c(C(O)c3ccccc3)nccc12` (stereo unspecified) came in with a melting point of 214 to 215 °C.

In the case of `Brc1cncc(-c2ccccc2Oc2ccccc2)c1`, the melting point was found to be 109 °C.

With `CCc1ncnc2ccc(C#Cc3cc(OC)ccc3OC)cc12`, the melting point fell in the range of 103 to 105 °C.

With `CC(C)(C)c1ccc(Nc2nnc(Cc3cnc(O)c(-c4ccco4)c3)c3ccccc23)cc1`, the melting point is 180 to 182 °C.

In turn, `CCN(CC)CC(=O)Nc1ccc(C2=NN(C(C)=O)C(C)Cc3cc4c(cc32)OCO4)cc1` (stereo unspecified) had a melting point of 175 to 176 °C.

Take `O=C1C(c2ccc(-c3ccccc3)cc2)n2cncc2CN1Cc1ccc(F)cc1` (stereo unspecified): the melting point was 189 to 190 °C.

`CC(C)(C)c1cc(Br)c(O)c(C=NO)c1` showed a melting point of 167 to 169 °C.

In turn, `Nc1cc(OCc2ccccc2)ccc1NC(=O)c1ccc(OCc2ccccc2)c(C23CC4CC(CC(C4)C2)C3)c1` yielded a melting point of 166 to 170 °C.

Molecule `C#CCN(Cc1cc2c(=O)n(C)c(CO)nc2cc1Cl)c1ccc(C(=O)OC(C)(C)C)cc1` came in with a melting point of 109 to 111 °C.

Take `Cc1ccccc1C1CN(C(=O)OC(C)(C)C)CCC1=O` (stereo unspecified): the melting point lay in the range of 97 to 99 °C.

For the molecule `CCN(CC)C(=O)n1ccc(Sc2ccc(Cl)cc2Cl)n1`, the melting point fell in the range of 96 to 97 °C.

For `COc1cc(C(=O)NC2CCN(C)CC2)c(F)cc1Nc1ncc2c(n1)N(C1CCCC1)CC(F)(F)C(=O)N2C`, the melting point is 194 to 196 °C.

The molecule `Fc1ccccc1-c1ccc2cccnc2n1` registered a melting point of 111 to 114 °C.

Consider `CC(C)CCCC(C)CC(=O)Oc1ccc(-c2ccc(OC(=O)CC(C)CCCC(C)C)cc2)cc1` (stereo unspecified), for which the melting point lay within 72 to 73 °C.

As to `COc1ccc2c(c1)C13CCN(C)C(C2)C1CCC(=O)C3` (stereo unspecified), the melting point was 187 to 188 °C.

The molecule `O=C1OCCN1CCN1CCN(C2Cc3cc(F)ccc3Sc3ccccc32)CC1` (stereo unspecified) returned a melting point of 158 to 159 °C.

`O=[N+]([O-])c1ccc2[nH]c(/C=C/c3ccoc3)nc2c1` displayed a melting point of 230 to 233 °C.

As to `COc1cccc(N(CC(=O)OC(C)(C)C)C(=O)CCl)c1`, the melting point worked out at 110 °C.

`Cc1cc(Br)cnc1CCCCNC1=NS(=O)(=O)c2cc([N+](=O)[O-])ccc21` came in with a melting point of 235 to 242 °C.

Regarding `O=C(O)c1ccc(CCOCCCCCCBr)s1`, the melting point was in the range of 60 to 61 °C.

Consider `O=[N+]([O-])c1ccc(Oc2cccc3c(Oc4ccc([N+](=O)[O-])c([N+](=O)[O-])c4)cccc23)cc1[N+](=O)[O-]`, for which the melting point lay in the range of 224 to 228 °C.

Take `O=Cc1c(O)cc(O)cc1CCl`: the melting point lay within 164 to 166 °C.

Regarding `COC(=O)c1coc(-c2ncn3c2CN(C)C(=O)c2c(Cl)cccc2-3)n1`, the melting point was in the range of 266 to 268 °C.

The molecule `CN1C(=O)C(=Cc2nc(C(C)(C)C)c(O)c(C(C)(C)C)n2)SC1=S` gave a melting point of 226 to 228 °C.

In turn, `COc1ccc2cccc(CC#N)c2c1` gave a melting point of 83 °C.

`CCCC(=NOc1ccc(Cl)cc1)c1cc(Cl)ccc1NS(=O)(=O)C(F)(F)F`: the melting point fell in the range of 62.5 to 64.5 °C.

The molecule `CC(=O)NC[C@H]1CN(c2ccc(N3CCC(O)(C#N)CC3)c(F)c2)C(=O)O1` returned a melting point of 99 to 100 °C.

`CCc1nn2ccc3oc(C)cc3c2c1CC#N` showed a melting point of 156 to 157 °C.

In turn, `CN=C(NS(=O)(=O)c1ccc(C)cc1)N1CCc2nc(N)sc2C1` displayed a melting point of 206 to 208 °C.

Regarding `CC(C)(C)OC(=O)NCC1(Cc2noc(=S)[nH]2)CCCCC1`, the melting point is 160 to 161 °C.

Consider `CC(=O)OC(=O)c1cc(CCl)ccc1O`, for which the melting point was 119 to 121 °C.

Consider `COCOc1cc(Cl)ccc1-c1cc(-c2cccc(C(=O)NCCCn3ccnc3)c2)c(C#N)c(NC(=O)c2ccccc2OC)n1`, for which the melting point lay within 100 to 101 °C.

`O=C(c1n[nH]c2c(=O)[nH]c3cc(Cl)ccc3c(=O)c12)N1CCOCC1` displayed a melting point of 347 °C.

`CNC(=O)ON=C(C(=O)N(C)C)C(C)=NOC` displayed a melting point of 172 to 173 °C.

With `N#Cc1ccc(OCC(O)CN2CC3CC(C2)CN(C(=O)OCCCl)C3)cc1` (stereo unspecified), the melting point was 104 to 105 °C.

On to `Cc1c(NC(=O)c2ccc(OC[C@@H]3CCCO3)cc2F)ccc2cc(CNCC(C)(C)O)[nH]c12`, for which the melting point was 148 to 149 °C.

In turn, `NS(=O)(=O)NC(=O)CCCCC1CCSS1` (stereo unspecified) came in with a melting point of 141 to 142 °C.

Take `CCCC[C@@H](O)[C@H](O)CCCC`: the melting point lay within 48 to 49 °C.

In the case of `CCOC(=O)Cn1c(-c2cc3c(cc2N)OCO3)nc2ccccc21`, the melting point lay in the range of 284 to 287 °C.

Take `Clc1cc(CCc2ccccn2)c2oc(-c3cccc4cccnc34)nc2c1`: the melting point was in the range of 110 to 111 °C.

As to `CCCN(C(=O)Oc1ccccc1)C1Cc2ccc(-c3ccc(=O)[nH]n3)cc2C1` (stereo unspecified), the melting point lay in the range of 140 to 141 °C.

The molecule `Cc1cccc2c1C1(CCC(=O)NC1=O)CCC2=O` (stereo unspecified) showed a melting point of 285 to 287 °C.

`COC(=O)NC=Cc1ccc(OCC(O)CNC(C)CC(N)=O)cc1` (stereo unspecified) yielded a melting point of 109 to 111 °C.

Molecule `CCC(C)c1nn(-c2ccc(C(F)(F)F)cn2)cc1CCCOc1c(CC(=O)O)cccc1OC` (stereo unspecified) yielded a melting point of 117 to 118 °C.

With `FC(F)(F)CNC(=S)Nc1cncc(Cl)n1`, the melting point is 170 to 172 °C.

`C=C(C)C(=O)OCCCCc1ccc(OC(F)(F)c2c(F)cc(-c3ccc(CCCCOC(=O)C(=C)C)cc3F)cc2F)cc1` yielded a melting point of 128 °C.

`CCCOC(C)c1ccc2[nH]c3cnc(C(=O)OCC)c(COC)c3c2c1` (stereo unspecified): the melting point was 189 to 190 °C.

Consider `Cc1c(C#N)sc2nc(CCCc3ccccc3)nc(N3CCN(C)CC3)c12`, for which the melting point lay within 101 to 103 °C.

As for `COC(=O)Cn1nnnc1-c1ccc(Cl)cc1`, the melting point was 156 to 158 °C.

`CC(=O)OC1CSC(Oc2ccc(Cl)c(-c3cccnc3)c2)C(OC(C)=O)C1OC(C)=O` (stereo unspecified) showed a melting point of 133 °C.

`CC(=O)c1sc(Nc2cc[nH]n2)nc1C` registered a melting point of 224 to 227 °C.

Turning to `Fc1ccc2sc(Cl)nc2c1`, the melting point stood at 69 °C.

Regarding `CC(=O)NC[C@H]1CN(c2ccc(N3CCC(=CC4(C#N)CC4)CC3)c(F)c2)C(=O)O1`, the melting point is 175 to 179 °C.

`CCC(=O)Nc1ccc(C(=O)[C@H]2C[C@H]2C(=O)O)cc1` (relative stereo) registered a melting point of 182 to 183 °C.

For `N=C(N)c1ccncc1`, the melting point lay in the range of 136 to 140 °C.

Molecule `CCOC(=O)C(=O)c1csc(NC(=O)Nc2c(C)cccc2C)n1` came in with a melting point of 172 to 174 °C.

The molecule `CCCCCCCOc1ccc(C(=O)CCC(=O)OCC)cc1` had a melting point of 39.7 to 40.1 °C.

Take `O=C1NC(=O)C(c2cn3c4c(cccc24)CCC3)=C1c1ccc(F)cc1`: the melting point lay in the range of 234 to 235 °C.

For `Cc1ccc(C2(O)CCNCC2)cc1`, the melting point was in the range of 137 to 138 °C.

The molecule `CC(C)(C)NS(=O)(=O)c1cccc(-c2ccc3cnc(Nc4ccc(=O)[nH]c4)nn23)c1` registered a melting point of 270 to 271 °C.

The molecule `CN(C)C(=O)CCC(=NNC(N)=S)c1ccccc1` registered a melting point of 173 to 175 °C.

In turn, `Cc1cccc(-n2nnc3cccnc32)n1` registered a melting point of 144 to 145 °C.

Take `O=C1c2ccccc2C(=O)N1Cc1cc2cc(Cl)cc(Br)c2o1`: the melting point was 194 to 198 °C.

`COc1cccc(Cn2cnc3c(Br)c(NC4=NCCN4)ccc32)c1` showed a melting point of 177 to 178 °C.
